From patent US20230073777A1, “CYCLIC-AMP RESPONSE ELEMENT BINDING PROTEIN (CBP) AND/OR ADENOVIRAL E1A BINDING PROTEIN OF 300 KDA (P300) DEGRADATION COMPOUNDS AND METHODS OF USE” (CULLGEN (SHANGHAI), INC., priority 2019, published 2023)
Entries after “also recorded” stand apart in the source; their conditions may differ.

Assays:
LNCaP cells = test: LNCaP cell viability assay (CellTiter-Glo); assay type: cell-based; conditions: Homo sapiens
How it was run: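 LNCaP cells, 5000/well, exposed to compounds in 12-point 3-fold serial dilution (top 10 μM) for 3 days. Viability by CellTiter-Glo luminescence, normalized to untreated cells; IC50 by least-squares nonlinear regression.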

HEL = test: Cell viability assay, HEL; assay type: cell-based; conditions: Homo sapiens, Erythroleukemia
Procedure: (§1) Cells were seeded at a density of 5000 cells per well in 96-well assay plates and treated with test compounds following a 12-point 3-fold serial dilution. Three days later, cell viability was determined using the CellTiter-Glo assay kit according to the manufacturer's instructions. The dose-response curves were determined and IC50 values were calculated using the GraphPad Prism software following a nonlinear regression (least squares fit) method.
(§2) The IC50 value of each compound was determined as described in FIG. 4 and calculated using the GraphPad Prism 5.0 software.

MV4; 11 = test: Cell viability assay, MV4; 11; assay type: cell-based; conditions: Homo sapiens, 11, Acute monocytic leukemia
Procedure: as §1, §2

Kasumi-1 = test: Cell viability assay, Kasumi-1; assay type: cell-based; conditions: Homo sapiens, Kasumi-1, Acute myeloid leukemia
Procedure: as §1, §2

NOMO-1 = test: Cell viability assay, NOMO-1; assay type: cell-based; conditions: Homo sapiens, NOMO-1, Acute monocytic leukemia
Procedure: as §1, §2

MOLM-13 = test: Cell viability assay, MOLM-13; assay type: cell-based; conditions: Homo sapiens, MOLM-13, Acute monocytic leukemia
Procedure: as §1, §2

HL-60 = test: Cell viability assay, HL-60; assay type: cell-based; conditions: Homo sapiens, HL-60, Acute myeloid leukemia
Procedure: as §1, §2

MEG-01 = test: Cell viability assay, MEG-01; assay type: cell-based; conditions: Homo sapiens, MEG-01, Chronic myeloid leukemia
Procedure: as §1, §2

MM.1S = test: Cell viability assay, MM.1S; assay type: cell-based; conditions: Homo sapiens, MM1.S, Multiple Myeloma
Procedure: as §1, §2

MM.1R = test: Cell viability assay, MM.1R; assay type: cell-based; conditions: Multiple Myeloma
Procedure: as §1, §2

NCI-H929 = test: Cell viability assay, NCI-H929; assay type: cell-based; conditions: Homo sapiens, NCI-H929, Multiple Myeloma
Procedure: as §1, §2

L-363 = test: Cell viability assay, L-363; assay type: cell-based; conditions: Homo sapiens, L-363, Multiple myeloma
Procedure: as §1, §2

RPMI-8226 = test: Cell viability assay, RPMI-8226; assay type: cell-based; conditions: Homo sapiens, RPMI-8226, Multiple myeloma
Procedure: as §1, §2

AMO-1 = test: Cell viability assay, AMO-1; assay type: cell-based; conditions: Homo sapiens, AMO1, AMO-1, Multiple Myeloma
Procedure: as §1, §2

WSU-DLCL2 = test: Cell viability assay, WSU-DLCL2; assay type: cell-based; conditions: Homo sapiens, WSUDLCL2, WSU-DLCL2, Diffuse large B-cell lymphoma
Procedure: as §1, §2

Karpas-422 = test: Cell viability assay, Karpas-422; assay type: cell-based; conditions: Homo sapiens, Karpas-422, Diffuse large B-cell lymphoma
Procedure: as §1, §2

Pfeiffer = test: Cell viability assay, Pfeiffer; assay type: cell-based; conditions: Homo sapiens, Diffuse large B-cell lymphoma
Procedure: as §1, §2

SU-DHL-1 = test: Cell viability assay, SU-DHL-1; assay type: cell-based; conditions: Homo sapiens, SU-DHL-1, Diffuse large B-cell lymphoma
Procedure: as §1, §2

VCaP = test: Cell viability assay, VCaP; assay type: cell-based; conditions: Homo sapiens, Prostate carcinoma
Procedure: as §1, §2

22Rv1 = test: Cell viability assay, 22Rv1; assay type: cell-based; conditions: Homo sapiens, 22Rv1, Prostate carcinoma
Procedure: as §1, §2

NCI-H520 = test: Cell viability assay, NCI-H520; assay type: cell-based; conditions: Homo sapiens, NCI-H520, Non-small cell lung cancer
Procedure: as §1, §2

NCI-H1703 = test: Cell viability assay, NCI-H1703; assay type: cell-based; conditions: Homo sapiens, NCI-H1703, Non-small cell lung cancer
Procedure: as §1, §2

LK-2 = test: Cell viability assay, LK-2; assay type: cell-based; conditions: Homo sapiens, LK-2, Non-small cell lung cancer
Procedure: as §1, §2

MCF-7 = test: Cell viability assay, MCF-7; assay type: cell-based; conditions: Homo sapiens, MCF7, MCF-7, breast carcinoma
Procedure: as §1, §2

SK-BR-3 = test: Cell viability assay, SK-BR-3; assay type: cell-based; conditions: Homo sapiens, SK-BR-3, breast carcinoma
Procedure: as §1, §2

P300/CBP = test: Immunoblotting of P300/CBP protein levels in LNCaP or 22RV1 cells; assay type: cell-based; conditions: LNCaP cells, 10 nM single dose (FIG. 8)
Procedure: Specific exemplary bivalent compounds were characterized in LNCaP or 22RV1 cells. LNCaP or 22RV1 cells that express CBP/P300 proteins were treated with GNE-781 or the bivalent compounds disclosed herein (P-001 to P-174) for indicated hours. Cells were collected, lysed and subject to immunoblotting using an antibody specific to P300 or CBP proteins. Tubulin or vinculin was included as the loading control. DMSO was used as the negative control.
Cultured cells or tissue chunks were washed with cold PBS once and lysed in cold RIPA buffer supplemented with protease inhibitors and phosphatase inhibitors (Beyotime Biotechnology). The solutions were then incubated at 4° C. for 30 minutes with gentle agitation to fully lyse cells. Cell lysates were centrifuged at 13,000 rpm for 10 minutes at 4° C. and pellets were discarded. Total protein concentrations in the lysates were determined by BCA assays (Beyotime Biotechnology). Cell lysates were mixed with Laemmli loading buffer to 1× and heated at 99° C. for 5 min. Proteins were resolved on SDS-PAGE and visualized by chemiluminescence. Images were taken by a ChemiDoc MP Imaging system (Bio-Rad). Protein bands were quantitated using the accompanied software provided by Bio-Rad.

CBP = target: T1, CBP (Homo sapiens, UniProt Q92793); test: Pharmacodynamic study, CBP in 22RV1 subcutaneous xenograft tumors; assay type: in vivo, Athymic nude mice; conditions: single dose 40 mg/kg, i.p. or p.o., six hours after administration (FIG. 9)
T1 construct: from tissue; host or cells: 22RV1 subcutaneous xenograft tumours in athymic nude mice
T1 sequence (Q92793 whole entry): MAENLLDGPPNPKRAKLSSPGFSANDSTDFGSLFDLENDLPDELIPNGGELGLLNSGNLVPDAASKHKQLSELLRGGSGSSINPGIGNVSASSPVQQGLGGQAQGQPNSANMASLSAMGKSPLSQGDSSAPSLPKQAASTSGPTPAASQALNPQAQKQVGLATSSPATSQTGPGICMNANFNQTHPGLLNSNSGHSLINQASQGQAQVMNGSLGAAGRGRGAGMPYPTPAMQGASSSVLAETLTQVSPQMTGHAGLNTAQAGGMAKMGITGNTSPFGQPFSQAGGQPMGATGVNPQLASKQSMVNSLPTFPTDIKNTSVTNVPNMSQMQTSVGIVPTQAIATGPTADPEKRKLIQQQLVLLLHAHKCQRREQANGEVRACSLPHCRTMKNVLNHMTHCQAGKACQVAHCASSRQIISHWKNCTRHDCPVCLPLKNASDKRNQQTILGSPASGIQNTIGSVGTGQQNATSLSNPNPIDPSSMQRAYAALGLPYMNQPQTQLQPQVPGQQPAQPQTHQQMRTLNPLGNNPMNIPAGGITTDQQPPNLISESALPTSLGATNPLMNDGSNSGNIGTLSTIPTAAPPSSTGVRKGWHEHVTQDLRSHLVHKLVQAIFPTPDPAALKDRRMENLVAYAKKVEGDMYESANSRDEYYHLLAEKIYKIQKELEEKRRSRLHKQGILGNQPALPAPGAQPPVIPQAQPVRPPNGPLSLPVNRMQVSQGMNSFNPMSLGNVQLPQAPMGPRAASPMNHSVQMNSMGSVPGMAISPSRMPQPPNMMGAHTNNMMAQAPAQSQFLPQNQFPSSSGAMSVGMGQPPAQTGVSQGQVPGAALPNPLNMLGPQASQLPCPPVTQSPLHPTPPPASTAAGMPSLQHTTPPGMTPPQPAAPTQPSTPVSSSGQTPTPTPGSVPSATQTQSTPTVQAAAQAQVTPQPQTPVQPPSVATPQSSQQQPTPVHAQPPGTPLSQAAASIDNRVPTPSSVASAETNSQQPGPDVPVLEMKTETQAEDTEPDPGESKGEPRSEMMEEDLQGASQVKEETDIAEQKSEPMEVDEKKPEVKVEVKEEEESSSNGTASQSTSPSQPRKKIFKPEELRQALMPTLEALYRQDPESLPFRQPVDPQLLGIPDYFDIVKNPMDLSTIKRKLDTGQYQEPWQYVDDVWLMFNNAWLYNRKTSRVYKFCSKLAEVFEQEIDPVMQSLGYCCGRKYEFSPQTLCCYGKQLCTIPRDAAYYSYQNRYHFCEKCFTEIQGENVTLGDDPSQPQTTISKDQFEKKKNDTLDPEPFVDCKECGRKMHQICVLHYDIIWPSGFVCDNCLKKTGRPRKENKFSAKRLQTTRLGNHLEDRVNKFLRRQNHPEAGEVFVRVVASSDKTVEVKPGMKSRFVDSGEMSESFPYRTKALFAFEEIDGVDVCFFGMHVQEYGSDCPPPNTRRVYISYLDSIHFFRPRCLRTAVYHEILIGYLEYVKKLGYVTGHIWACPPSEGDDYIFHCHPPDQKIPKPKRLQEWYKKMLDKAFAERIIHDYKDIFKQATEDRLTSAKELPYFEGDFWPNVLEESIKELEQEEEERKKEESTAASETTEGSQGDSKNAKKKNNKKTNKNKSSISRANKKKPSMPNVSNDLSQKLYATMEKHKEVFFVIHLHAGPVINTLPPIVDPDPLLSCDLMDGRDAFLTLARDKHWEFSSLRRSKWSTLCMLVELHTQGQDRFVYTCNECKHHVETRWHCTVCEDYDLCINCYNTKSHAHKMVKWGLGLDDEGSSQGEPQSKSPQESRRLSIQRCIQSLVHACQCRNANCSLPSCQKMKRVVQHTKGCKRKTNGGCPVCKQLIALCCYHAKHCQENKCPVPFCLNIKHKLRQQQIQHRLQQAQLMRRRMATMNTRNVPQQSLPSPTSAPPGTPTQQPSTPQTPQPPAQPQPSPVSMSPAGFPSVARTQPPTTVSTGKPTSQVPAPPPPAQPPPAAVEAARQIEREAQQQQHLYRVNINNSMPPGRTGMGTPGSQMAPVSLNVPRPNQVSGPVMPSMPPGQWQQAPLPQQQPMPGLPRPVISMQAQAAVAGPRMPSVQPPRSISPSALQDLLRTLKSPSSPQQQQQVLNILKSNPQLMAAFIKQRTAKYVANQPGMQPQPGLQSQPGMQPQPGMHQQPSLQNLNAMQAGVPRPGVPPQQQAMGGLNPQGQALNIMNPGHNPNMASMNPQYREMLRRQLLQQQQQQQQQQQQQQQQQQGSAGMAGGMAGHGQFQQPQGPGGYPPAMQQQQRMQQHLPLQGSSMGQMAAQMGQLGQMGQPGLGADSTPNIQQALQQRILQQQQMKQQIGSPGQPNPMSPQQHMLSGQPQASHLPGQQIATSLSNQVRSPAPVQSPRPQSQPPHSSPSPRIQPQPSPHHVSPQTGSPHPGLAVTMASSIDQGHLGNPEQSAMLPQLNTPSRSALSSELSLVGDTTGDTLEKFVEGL
Procedure: (§3) In addition to cultured cells, athymic nude mice bearing 22RV1 subcutaneous xenograft tumors at the right flank were intraperitoneally or orally treated with 40 mg/kg bivalent compounds. Six hours after drug administration, animals were sacrificed for immunoblotting of P300 and CBP in homogenized xenograft tumor masses. […] Moreover, ICR mice were orally treated with 40 mg/kg bivalent compounds. Six hours after drug administration, animals were sacrificed for immunoblotting of CBP in homogenized lung tissues.
(§4) Athymic nude mice bearing 22RV1 subcutaneous xenograft tumors at the right flank were intraperitoneally or orally treated with selected bivalent compounds at 40 mg/kg. Six hours after drug administration, animals were sacrificed, and xenograft tumors were collected for immunoblotting of P300 and CBP.
(§5) All animal experiments were performed under protocols approved by the Institutional Animal Care and Use Committee (IACUC) of Cullgen. Athymic nude mice (male, 5-weeks old) received 5 million 22RV1 cells subcutaneously inoculated at the right flank site. Twenty days following inoculation, tumors were approximately 500 mm^3 in size. Tumor-bearing mice were treated intraperitoneally or via oral gavage with vehicle or bivalent compounds at indicated doses. 6 hours after drug administration, animals were sacrificed, tumors were resected. Small chunks of tumors were homogenized for immunoblotting of P300/CBP and other proteins as indicated. Alternatively, ICR mice (male, 5-weeks old) were treated via oral gavage with vehicle or bivalent compounds at indicated doses. 6 hours after drug administration, animals were sacrificed, lung tissues were resected. Small chunks of lung tissues were homogenized for immunoblotting of CBP and other proteins as indicated.

P300 [1] = target: T2, P300 (Homo sapiens, UniProt Q09472); test: Pharmacodynamic study, P300 in 22RV1 subcutaneous xenograft tumors; assay type: in vivo, Athymic nude mice; design: from tissue; host or cells: 22RV1 subcutaneous xenograft tumours in athymic nude mice; conditions: single dose 40 mg/kg, i.p. or p.o., six hours after administration (FIG. 9)
T2 sequence (Q09472 whole entry): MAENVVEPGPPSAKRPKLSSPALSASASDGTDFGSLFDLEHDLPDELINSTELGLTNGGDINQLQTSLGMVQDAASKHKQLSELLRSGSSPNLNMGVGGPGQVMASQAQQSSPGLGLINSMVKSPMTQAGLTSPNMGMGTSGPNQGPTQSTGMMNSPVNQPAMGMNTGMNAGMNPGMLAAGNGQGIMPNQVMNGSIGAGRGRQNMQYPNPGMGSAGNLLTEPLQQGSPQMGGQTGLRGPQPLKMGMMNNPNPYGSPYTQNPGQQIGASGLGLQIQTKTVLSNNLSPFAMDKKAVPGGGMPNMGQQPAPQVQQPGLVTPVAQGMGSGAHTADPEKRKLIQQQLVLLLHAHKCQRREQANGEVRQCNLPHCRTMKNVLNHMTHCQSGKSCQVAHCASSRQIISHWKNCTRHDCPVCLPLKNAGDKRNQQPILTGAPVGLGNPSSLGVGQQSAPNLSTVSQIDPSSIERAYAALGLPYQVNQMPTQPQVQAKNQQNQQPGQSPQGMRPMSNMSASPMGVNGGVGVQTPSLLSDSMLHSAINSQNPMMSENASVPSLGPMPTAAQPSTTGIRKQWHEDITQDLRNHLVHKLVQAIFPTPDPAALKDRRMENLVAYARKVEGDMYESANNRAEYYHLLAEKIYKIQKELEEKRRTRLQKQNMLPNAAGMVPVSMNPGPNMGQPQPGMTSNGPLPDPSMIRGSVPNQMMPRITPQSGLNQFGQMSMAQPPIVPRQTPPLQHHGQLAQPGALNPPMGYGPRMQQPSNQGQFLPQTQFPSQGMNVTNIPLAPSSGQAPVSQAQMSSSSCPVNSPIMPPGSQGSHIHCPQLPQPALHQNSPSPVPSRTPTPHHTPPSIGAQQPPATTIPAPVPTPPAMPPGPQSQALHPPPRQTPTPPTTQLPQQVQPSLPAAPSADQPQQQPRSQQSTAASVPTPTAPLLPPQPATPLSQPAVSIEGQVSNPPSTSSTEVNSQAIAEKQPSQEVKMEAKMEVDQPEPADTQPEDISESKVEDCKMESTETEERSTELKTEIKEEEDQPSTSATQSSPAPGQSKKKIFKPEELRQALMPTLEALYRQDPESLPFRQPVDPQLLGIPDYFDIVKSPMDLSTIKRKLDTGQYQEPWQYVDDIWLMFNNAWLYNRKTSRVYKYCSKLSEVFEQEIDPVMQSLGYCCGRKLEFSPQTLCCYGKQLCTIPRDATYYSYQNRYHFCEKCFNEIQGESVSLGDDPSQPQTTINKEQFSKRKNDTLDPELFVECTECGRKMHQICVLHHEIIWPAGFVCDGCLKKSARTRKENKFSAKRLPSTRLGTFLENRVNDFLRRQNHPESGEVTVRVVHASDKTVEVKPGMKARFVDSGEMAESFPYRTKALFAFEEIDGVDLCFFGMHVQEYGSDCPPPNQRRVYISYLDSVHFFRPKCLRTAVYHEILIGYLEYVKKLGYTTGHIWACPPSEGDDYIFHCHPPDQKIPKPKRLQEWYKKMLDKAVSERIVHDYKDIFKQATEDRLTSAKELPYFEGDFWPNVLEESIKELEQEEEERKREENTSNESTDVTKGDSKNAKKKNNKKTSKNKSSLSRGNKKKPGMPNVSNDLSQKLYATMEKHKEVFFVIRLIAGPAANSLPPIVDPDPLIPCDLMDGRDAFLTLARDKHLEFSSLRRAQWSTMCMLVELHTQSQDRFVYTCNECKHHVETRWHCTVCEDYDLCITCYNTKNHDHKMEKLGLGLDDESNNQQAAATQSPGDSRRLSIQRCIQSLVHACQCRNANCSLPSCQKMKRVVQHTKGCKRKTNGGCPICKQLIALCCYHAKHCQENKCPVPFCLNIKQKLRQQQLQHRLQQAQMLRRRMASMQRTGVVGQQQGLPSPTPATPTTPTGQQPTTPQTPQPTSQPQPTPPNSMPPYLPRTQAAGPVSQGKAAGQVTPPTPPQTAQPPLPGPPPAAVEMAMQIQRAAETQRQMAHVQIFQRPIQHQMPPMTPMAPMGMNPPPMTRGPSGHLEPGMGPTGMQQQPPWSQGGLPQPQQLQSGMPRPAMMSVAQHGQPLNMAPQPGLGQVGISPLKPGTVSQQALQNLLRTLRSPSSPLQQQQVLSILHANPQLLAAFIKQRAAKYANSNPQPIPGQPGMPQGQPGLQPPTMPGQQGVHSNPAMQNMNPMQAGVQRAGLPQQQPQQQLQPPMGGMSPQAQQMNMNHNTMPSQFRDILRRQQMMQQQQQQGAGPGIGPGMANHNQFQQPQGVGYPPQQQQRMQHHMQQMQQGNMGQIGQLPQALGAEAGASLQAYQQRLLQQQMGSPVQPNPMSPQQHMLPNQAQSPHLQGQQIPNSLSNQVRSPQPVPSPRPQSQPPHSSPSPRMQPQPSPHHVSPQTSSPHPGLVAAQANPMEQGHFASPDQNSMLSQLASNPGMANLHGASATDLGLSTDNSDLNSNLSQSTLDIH
Procedure: as §3, §4, §5

P300 [2] = target: T2, P300; test: Immunoblotting of P300 protein levels in LNCaP or 22RV1 cells; assay type: cell-based; design: LNCaP or 22RV1 cells that express CBP/P300 proteins were treated with GNE-781 or the bivalent compounds; endogenous in cells; host or cells: LNCaP (clone FGC) or 22RV1 cells
How it was run: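 LNCaP or 22RV1 cells treated with compounds for indicated hours, DMSO as negative control. RIPA lysates resolved by SDS-PAGE and immunoblotted for P300 or CBP, tubulin or vinculin as loading control; chemiluminescent bands quantitated.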

## CNC(=O)N1CCc2c(c(N3CCCc4cc(-c5cnn(C)c5)c(C(F)F)cc43)nn2C2CCOCC2)C1 [GNE-781, reference compound]
LNCaP cells; cell viability, LNCaP clone FGC, Prostate carcinoma (Table 4)
  IC50: 4.17 µM
HEL
  IC50: > 10 µM
MV4; 11
  IC50: > 10 µM
Kasumi-1
  IC50: 0.346 µM
NOMO-1
  IC50: > 10 µM
MOLM-13
  IC50: > 10 µM
HL-60
  IC50: > 10 µM
MEG-01
  IC50: > 10 µM
MM.1S
  IC50: 0.0128 µM
MM.1R
  IC50: 0.0132 µM
NCI-H929
  IC50: 0.0156 µM
L-363
  IC50: > 1 µM
RPMI-8226
  IC50: 0.0103 µM
AMO-1
  IC50: 0.138 µM
WSU-DLCL2
  IC50: 0.014 µM
Karpas-422
  IC50: > 10 µM
Pfeiffer
  IC50: 0.132 µM
SU-DHL-1
  IC50: > 1 µM
VCaP
  IC50: 0.723 µM
22Rv1
  IC50: 1.68 µM
NCI-H520
  IC50: 5.38 µM
NCI-H1703
  IC50: > 10 µM
LK-2
  IC50: 2.71 µM
MCF-7
  IC50: 2.39 µM
SK-BR-3
  IC50: > 10 µM

## CC(=O)N1CCc2c(c(N3CCCc4cc(-c5cnn(C)c5)c(C(F)F)cc43)nn2C2CCN(C(=O)CCCCCNc3cccc4c3C(=O)N(C3CCC(=O)NC3=O)C4=O)CC2)C1 (stereo not shown) [P-100, 4-((6-(4-(5-acetyl-3-(7-(difluoromethyl)-6-(1-methyl-1H-pyrazol-4-yl)-3,4-dihydroquinolin-1(2H)-yl)-4,5,6,7-tetrahydro-1H-pyrazolo[4,3-c]pyridin-1-yl)piperidin-1-yl)-6-oxohexyl)amino)-2-(2,6-dioxopiperidin-3-yl)isoindoline-1,3-dione]
LNCaP cells; 72 h, LNCaP prostate cancer cell viability inhibition, 3 days, CellTiter-Glo (Table 3)
  IC50: 0.0009 µM
P300/CBP
  degradation of P300/CBP in combination with pomalidomide, MG-132, Bortezomib or MLN4924: compromised; also recorded: neutralized
CBP
  CBP protein levels in 22RV1 xenograft tumors: significantly reducing
P300 [1]
  P300 protein levels in 22RV1 xenograft tumors: significantly reducing
P300 [2]; LNCaP or 22RV1 cells, various concentrations (FIG. 7)
  P300 protein levels, dependence on interaction with cereblon: reduced P300 protein levels in a concentration-dependent manner
P300 [2]; percentage of inhibition of p300 at 10 nM (Table 3), read-out: Degradation (10 nM)
  inhibition at 0.01 µM: > 80%
